Earlier results as cited in patent publication US10434065B2, “Microfluidic liposome synthesis, purification and active drug loading” (University of Maryland, College Park, priority 2013, dated 2019).
Structures can show the parent of a compound that is named as a salt.

CN(C)c1ccc2cc3ccc(N(C)C)cc3nc2c1 [AO, Acridine Orange hydrochloride]
pKa: 10.4
